# Laboratory results as given in PubChem BioAssay (NCI).
#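 A five-concentration, 48-hour dose response in 96-well plates underlies each endpoint, interpolated linearly between surrounding concentrations. GI50 is the concentration that inhibits growth by half. TGI marks complete inhibition of growth.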
# Key:
# Assay in all cases: NCI tumour cell line growth inhibition, 48 h
# SNB-19 CNS = system: SNB-19 CNS
# UACC-257 melanoma = system: UACC-257 melanoma
# BT-549 breast = system: BT-549 breast
# UO-31 renal = system: UO-31 renal
# HOP-92 NSCLC = system: HOP-92 NSCLC
# NCI/ADR-RES ovarian = system: NCI/ADR-RES ovarian
# K-562 leukemia = system: K-562 leukemia
# OVCAR-3 ovarian = system: OVCAR-3 ovarian
# HL-60(TB) leukemia = system: HL-60(TB) leukemia
# MALME-3M melanoma = system: MALME-3M melanoma
Structure (SMILES),GI50 (SNB-19 CNS) [µM],TGI (SNB-19 CNS) [µM],GI50 (UACC-257 melanoma) [µM],TGI (UACC-257 melanoma) [µM],GI50 (BT-549 breast) [µM],TGI (BT-549 breast) [µM],GI50 (UO-31 renal) [µM],TGI (UO-31 renal) [µM],GI50 (HOP-92 NSCLC) [µM],TGI (HOP-92 NSCLC) [µM],GI50 (NCI/ADR-RES ovarian) [µM],TGI (NCI/ADR-RES ovarian) [µM],GI50 (K-562 leukemia) [µM],TGI (K-562 leukemia) [µM],GI50 (OVCAR-3 ovarian) [µM],TGI (OVCAR-3 ovarian) [µM],GI50 (HL-60(TB) leukemia) [µM],TGI (HL-60(TB) leukemia) [µM],GI50 (MALME-3M melanoma) [µM],TGI (MALME-3M melanoma) [µM]
O=C(CCCCCCNC(=O)c1cnc(N(c2ccccc2)c2ccccc2)nc1)NO,3.67,31.3,2.23,30.5,12.5,> 84.3,4.63,36.6,2.13,15.7,14.4,> 96.8,2.47,> 100,2.71,15.3,3.53,> 62.3,0.73,5.03
COc1cccc(N2CCN(CC(=O)N3CCN(c4nnc(-c5ccc(Cl)cc5)c(-c5ccc(Cl)cc5)n4)CC3)CC2)c1,37.9,> 100,51.7,> 100,12.9,> 100,3.63,> 100,14.7,36.4,19.9,> 100,9.89,> 100,36.9,> 100,3.84,> 100,20.6,> 100
O=c1[nH]c(=O)c2cn[nH]c2[nH]1,> 100,> 100,> 100,> 100,> 100,> 100,> 100,> 100,> 100,> 100,> 100,> 100,> 100,> 100,> 100,> 100,> 100,> 100,> 100,> 100
O=C(Nc1ccc([As](=O)(O)O)cc1)Nc1cccc(Cl)c1Cl,,> 100,,> 100,,> 100,,> 100,,> 100,,> 100,,> 100,,> 100,,> 100,,> 100
C=C1C(=O)O[C@H]2[C@H]1CC/C(CNC(=O)/C=C/c1cc(OC)c(OC)c(OC)c1)=C\CC[C@@]1(C)O[C@@H]21,11.9,32,1.76,5.72,1.51,3.95,1.55,4.08,0.257,5.44,24.4,> 100,0.601,4.13,0.333,1.44,0.925,3.3,1.34,3.44
COc1cc(C(O)CCBr)c(OC)cc1C (stereo not given),,> 100,,> 100,,> 84.4,,> 100,,> 100,,> 57.6,,> 100,,44.1,,> 100,,> 100
